Data: article PMC8237267 (Journal of Medicinal Chemistry, 2021)

Columns and labels:
[1] = test system: Hut78; experiment: Cytotoxicity assay (Cell Titer-Blue, 72 h); type: cell-based; settings: Homo sapiens, CTCL, one representative of three experiments, read-out: IC50 (heat map) Hut78
Description: (§1) The PTCL cell lines, KHYG-1, NK-92, SNK6, DERL-2, Mac1, 1305 Myla, Hut78, SU-DHL-1 or T-ALL cell lines SUP-T11, DND-41, and MOLT4 were maintained in RPMI-1640 supplemented with 10% FBS, 0.06 g/L penicillin/0.1 g/L streptomycin (Pen/Strep, Gibco), and 2 mM L-glutamine (Gibco). Culture media of KHYG-1, NK-92, SNK6, and DERL-2 cells was additionally supplemented with 2.5 ng/mL recombinant human IL-2 (ImmunoTools GmbH, Germany). The authenticity of PTCL cell lines was confirmed by analysis of highly polymorphic short tandem repeat loci (STR) using the PowerPlex 16 HS System (Promega; performed by Microsynth AG, Switzerland).
(§2) Cells were plated in 96-well flat-bottom sterile culture plates with low-evaporation lids (Costar #3997). The inhibitors and a vehicle control (0.5% DMSO) were added to the cells following 24 h. After 72 h, Cell Titer-Blue (Promega #G808A) was added to each well (20 μL), and the fluorescence was measured at 560/590 nm using a Cytation S63 spectrophotometer (BioTek) or a GloMax Discover Microplate Reader (Promega, Madison, WI, USA). GraphPad Prism 6.0 (GraphPad Software Inc.) was used to determine the IC50 values.

[2] = test system: Mac1; experiment: Cytotoxicity assay (Cell Titer-Blue, 72 h); type: cell-based; settings: ALK- ALCL; one representative of three experiments; read-out: IC50 (heat map) Mac1
Description: as §1, §2

[3] = target: T1, HDAC1 (Homo sapiens, UniProt Q13547); experiment: HDAC EMSA activity assay (Nanosyn); type: biochemical
T1 construct: The full-length human HDACs were recombinantly expressed and purified from SF9 insect cells; host or cells: SF9 insect cells
T1 sequence (Q13547 whole entry): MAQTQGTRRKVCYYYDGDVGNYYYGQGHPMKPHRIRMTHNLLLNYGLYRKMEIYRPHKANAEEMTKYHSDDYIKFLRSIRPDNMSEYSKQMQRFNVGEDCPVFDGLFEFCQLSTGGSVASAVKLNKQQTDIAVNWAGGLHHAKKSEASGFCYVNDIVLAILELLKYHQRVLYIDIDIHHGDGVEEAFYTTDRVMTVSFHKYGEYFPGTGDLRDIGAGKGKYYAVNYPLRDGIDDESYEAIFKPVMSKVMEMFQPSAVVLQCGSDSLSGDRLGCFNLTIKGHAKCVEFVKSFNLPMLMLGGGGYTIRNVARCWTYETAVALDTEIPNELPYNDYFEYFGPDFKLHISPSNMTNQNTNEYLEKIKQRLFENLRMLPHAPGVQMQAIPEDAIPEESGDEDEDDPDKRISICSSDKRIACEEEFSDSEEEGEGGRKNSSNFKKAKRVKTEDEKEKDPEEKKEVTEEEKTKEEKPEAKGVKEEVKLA
Description: (§3) The full-length human HDACs were recombinantly expressed and purified from SF9 insect cells. All compounds were serially prediluted in DMSO from a top concentration of 10 or 1 μM and introduced into the 384-well plates through an acoustic dispenser (Labcyte550) into the reaction buffer (100 mM HEPES, pH 7.5, 25 mM KCl, 0.1% BSA, 0.01% Triton X-100, and enzyme). The total concentration of DMSO was 1% in all wells. The deacetylation reaction was initiated by introduction of a FAM-labeled acetylated peptide substrate. The reaction was monitored through the change in the relative fluorescence intensity of the substrate and product peaks. The activity was determined as the product sum ratio (PSR): P/(S + P), where P = product peak height and S = substrate peak height. […] Inhibition curves (Pinh vs inhibitor concentration) were fitted by a four-parameter sigmoid dose–response model using XLfit software (IDBS) to determine the IC50 values.

[4] = target: T2, HDAC10 (Homo sapiens, UniProt Q969S8); experiment: HDAC EMSA activity assay (Nanosyn); type: biochemical
T2 construct: The full-length human HDACs were recombinantly expressed and purified from SF9 insect cells; host or cells: SF9 insect cells
T2 sequence (Q969S8 whole entry): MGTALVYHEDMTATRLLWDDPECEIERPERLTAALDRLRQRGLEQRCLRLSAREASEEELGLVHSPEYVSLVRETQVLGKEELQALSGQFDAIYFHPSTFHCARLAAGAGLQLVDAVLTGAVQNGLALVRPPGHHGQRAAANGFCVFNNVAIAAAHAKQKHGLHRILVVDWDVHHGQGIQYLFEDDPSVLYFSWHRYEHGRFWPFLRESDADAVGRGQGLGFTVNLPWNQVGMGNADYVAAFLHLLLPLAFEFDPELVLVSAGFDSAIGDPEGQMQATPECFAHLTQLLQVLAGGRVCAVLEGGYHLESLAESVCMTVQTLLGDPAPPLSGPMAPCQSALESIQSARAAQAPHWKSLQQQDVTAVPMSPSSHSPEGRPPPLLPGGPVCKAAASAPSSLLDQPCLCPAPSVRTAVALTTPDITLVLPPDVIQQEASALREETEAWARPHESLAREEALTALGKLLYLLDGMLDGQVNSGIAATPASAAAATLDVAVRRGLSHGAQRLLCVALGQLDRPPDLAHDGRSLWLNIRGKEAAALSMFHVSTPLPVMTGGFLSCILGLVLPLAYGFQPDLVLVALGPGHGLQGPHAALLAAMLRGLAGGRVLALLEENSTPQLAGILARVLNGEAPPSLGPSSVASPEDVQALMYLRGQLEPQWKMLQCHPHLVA
Description: as §3

[5] = target: T3, HDAC9 (Homo sapiens, UniProt Q9UKV0); experiment: HDAC EMSA activity assay (Nanosyn); type: biochemical
T3 construct: The full-length human HDACs were recombinantly expressed and purified from SF9 insect cells; host or cells: SF9 insect cells
Description: as §3

[6] = target: T4, HDAC5 (Homo sapiens, UniProt Q9UQL6); experiment: HDAC EMSA activity assay (Nanosyn); type: biochemical
T4 construct: The full-length human HDACs were recombinantly expressed and purified from SF9 insect cells; host or cells: SF9 insect cells
T4 sequence (Q9UQL6 whole entry): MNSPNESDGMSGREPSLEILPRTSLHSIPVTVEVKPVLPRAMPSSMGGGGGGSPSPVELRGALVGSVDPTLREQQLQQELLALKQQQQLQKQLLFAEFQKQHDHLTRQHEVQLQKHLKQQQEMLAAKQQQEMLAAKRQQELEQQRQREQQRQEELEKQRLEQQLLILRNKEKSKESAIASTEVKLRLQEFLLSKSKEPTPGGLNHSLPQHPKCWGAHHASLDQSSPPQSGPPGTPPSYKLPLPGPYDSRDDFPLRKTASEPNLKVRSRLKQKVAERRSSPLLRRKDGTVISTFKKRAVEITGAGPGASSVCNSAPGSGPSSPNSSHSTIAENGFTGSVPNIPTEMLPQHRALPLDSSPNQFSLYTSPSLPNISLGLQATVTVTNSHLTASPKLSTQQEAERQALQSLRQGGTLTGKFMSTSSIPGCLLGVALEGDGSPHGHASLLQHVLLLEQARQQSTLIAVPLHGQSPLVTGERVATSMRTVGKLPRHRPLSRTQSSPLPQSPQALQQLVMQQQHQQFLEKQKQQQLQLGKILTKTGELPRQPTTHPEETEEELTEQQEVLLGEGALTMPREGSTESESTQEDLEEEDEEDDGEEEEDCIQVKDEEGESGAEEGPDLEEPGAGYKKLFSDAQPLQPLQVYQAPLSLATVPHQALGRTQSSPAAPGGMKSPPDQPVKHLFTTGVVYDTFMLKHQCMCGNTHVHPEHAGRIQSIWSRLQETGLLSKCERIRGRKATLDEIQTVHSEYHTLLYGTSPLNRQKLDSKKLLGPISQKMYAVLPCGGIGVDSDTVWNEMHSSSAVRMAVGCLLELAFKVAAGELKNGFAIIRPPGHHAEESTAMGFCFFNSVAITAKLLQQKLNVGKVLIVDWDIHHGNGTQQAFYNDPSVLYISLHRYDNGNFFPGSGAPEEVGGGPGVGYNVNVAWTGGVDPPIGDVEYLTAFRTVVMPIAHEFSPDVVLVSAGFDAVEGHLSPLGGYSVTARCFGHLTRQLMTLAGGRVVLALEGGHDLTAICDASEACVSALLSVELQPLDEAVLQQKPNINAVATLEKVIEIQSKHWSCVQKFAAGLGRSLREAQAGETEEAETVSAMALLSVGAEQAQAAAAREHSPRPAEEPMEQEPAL
Description: as §3

[7] = target: T5, HDAC7 (Homo sapiens, UniProt Q8WUI4); experiment: HDAC EMSA activity assay (Nanosyn); type: biochemical
T5 construct: The full-length human HDACs were recombinantly expressed and purified from SF9 insect cells; host or cells: SF9 insect cells
T5 sequence (Q8WUI4 whole entry): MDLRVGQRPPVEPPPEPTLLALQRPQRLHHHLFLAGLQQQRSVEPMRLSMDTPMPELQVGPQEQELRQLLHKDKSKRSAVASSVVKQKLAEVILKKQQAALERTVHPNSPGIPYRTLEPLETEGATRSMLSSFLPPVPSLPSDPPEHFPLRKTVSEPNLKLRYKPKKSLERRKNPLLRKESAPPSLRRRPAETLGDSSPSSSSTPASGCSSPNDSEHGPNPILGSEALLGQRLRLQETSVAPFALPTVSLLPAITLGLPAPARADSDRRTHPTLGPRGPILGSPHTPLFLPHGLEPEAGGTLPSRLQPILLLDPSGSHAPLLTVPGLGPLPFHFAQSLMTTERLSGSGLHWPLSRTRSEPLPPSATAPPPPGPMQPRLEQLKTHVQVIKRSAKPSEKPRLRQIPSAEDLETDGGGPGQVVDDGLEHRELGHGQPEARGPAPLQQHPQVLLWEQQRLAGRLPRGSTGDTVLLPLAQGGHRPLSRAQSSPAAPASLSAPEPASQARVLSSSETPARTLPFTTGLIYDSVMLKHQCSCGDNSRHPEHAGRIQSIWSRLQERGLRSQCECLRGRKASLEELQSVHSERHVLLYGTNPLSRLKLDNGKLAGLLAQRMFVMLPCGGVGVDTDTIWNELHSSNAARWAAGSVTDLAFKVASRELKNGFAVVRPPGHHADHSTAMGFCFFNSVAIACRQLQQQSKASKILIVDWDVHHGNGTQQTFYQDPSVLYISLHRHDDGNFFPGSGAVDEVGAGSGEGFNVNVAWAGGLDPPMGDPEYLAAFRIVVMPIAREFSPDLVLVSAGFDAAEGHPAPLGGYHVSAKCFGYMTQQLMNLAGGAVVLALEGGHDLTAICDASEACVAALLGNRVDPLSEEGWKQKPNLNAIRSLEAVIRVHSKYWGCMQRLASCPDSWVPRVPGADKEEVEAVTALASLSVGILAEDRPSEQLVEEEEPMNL
Description: as §3

[8] = target: T6, HDAC8 (Homo sapiens, UniProt Q9BY41); experiment: HDAC EMSA activity assay (Nanosyn); type: biochemical; settings: EMSA (Nanosyn); read-out: IC50 HDAC8
T6 construct: The full-length human HDACs were recombinantly expressed and purified from SF9 insect cells; host or cells: SF9 insect cells
T6 sequence (Q9BY41 1-377): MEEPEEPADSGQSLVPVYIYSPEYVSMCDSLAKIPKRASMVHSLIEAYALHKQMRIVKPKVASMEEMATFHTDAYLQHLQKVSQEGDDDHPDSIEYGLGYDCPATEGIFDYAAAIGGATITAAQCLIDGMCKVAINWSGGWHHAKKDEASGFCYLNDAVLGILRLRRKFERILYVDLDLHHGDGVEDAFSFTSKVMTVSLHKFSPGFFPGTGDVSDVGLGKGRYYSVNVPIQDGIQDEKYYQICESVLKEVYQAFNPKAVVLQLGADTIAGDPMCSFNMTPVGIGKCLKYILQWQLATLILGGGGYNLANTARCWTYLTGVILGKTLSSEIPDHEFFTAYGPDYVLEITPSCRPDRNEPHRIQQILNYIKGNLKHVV

[9] = In vitro stability in mouse hepatocytes; type: in vitro ADME
Description: The inhibitors (and controls) were formulated to concentrations of 100 μM in 50% acetonitrile/50% water. The medium (William’s E Medium supplemented with GlutaMAX) and hepatocyte thawing medium were allowed to reach room temperature and the hepatocytes and thawing medium and centrifuged at 100 g for 10 min. The supernatant was removed, and hepatocytes resuspended in the incubation medium (∼1.5 × 10^6 cells/mL). The cells were diluted to 0.5 × 10^6 viable cells/mL. A volume of 198 μL of hepatocytes was transferred to a 96-well noncoated plate and incubated at 37 °C for 10 min. Following this, 2 μL of the 100 μM test compounds or positive control was transferred into respective wells to start the reaction. At different time points (0, 15, 30, 60, 90, and 120 min), 25 μL aliquots were mixed with 6 volumes (150 μL) of acetonitrile containing internal standard, IS (100 nM alprazolam, 200 nM labetalol, 200 nM caffeine, and 200 nM diclofenac) to terminate the reaction. Samples were vortexed for 5 min and centrifuged for 45 min at 3220g, diluted by ultrapure water, followed by LC/MS/MS analysis. The in vitro half-life (T1/2) was determined by regression analysis of the percent parent disappearance vs time curve (T1/2 = 0.693/k) using Microsoft Excel.

[10] = target: T7, HDAC4 (Homo sapiens, UniProt P56524); experiment: HDAC EMSA activity assay (Nanosyn); type: biochemical
T7 construct: The full-length human HDACs were recombinantly expressed and purified from SF9 insect cells; host or cells: SF9 insect cells
T7 sequence (P56524 whole entry): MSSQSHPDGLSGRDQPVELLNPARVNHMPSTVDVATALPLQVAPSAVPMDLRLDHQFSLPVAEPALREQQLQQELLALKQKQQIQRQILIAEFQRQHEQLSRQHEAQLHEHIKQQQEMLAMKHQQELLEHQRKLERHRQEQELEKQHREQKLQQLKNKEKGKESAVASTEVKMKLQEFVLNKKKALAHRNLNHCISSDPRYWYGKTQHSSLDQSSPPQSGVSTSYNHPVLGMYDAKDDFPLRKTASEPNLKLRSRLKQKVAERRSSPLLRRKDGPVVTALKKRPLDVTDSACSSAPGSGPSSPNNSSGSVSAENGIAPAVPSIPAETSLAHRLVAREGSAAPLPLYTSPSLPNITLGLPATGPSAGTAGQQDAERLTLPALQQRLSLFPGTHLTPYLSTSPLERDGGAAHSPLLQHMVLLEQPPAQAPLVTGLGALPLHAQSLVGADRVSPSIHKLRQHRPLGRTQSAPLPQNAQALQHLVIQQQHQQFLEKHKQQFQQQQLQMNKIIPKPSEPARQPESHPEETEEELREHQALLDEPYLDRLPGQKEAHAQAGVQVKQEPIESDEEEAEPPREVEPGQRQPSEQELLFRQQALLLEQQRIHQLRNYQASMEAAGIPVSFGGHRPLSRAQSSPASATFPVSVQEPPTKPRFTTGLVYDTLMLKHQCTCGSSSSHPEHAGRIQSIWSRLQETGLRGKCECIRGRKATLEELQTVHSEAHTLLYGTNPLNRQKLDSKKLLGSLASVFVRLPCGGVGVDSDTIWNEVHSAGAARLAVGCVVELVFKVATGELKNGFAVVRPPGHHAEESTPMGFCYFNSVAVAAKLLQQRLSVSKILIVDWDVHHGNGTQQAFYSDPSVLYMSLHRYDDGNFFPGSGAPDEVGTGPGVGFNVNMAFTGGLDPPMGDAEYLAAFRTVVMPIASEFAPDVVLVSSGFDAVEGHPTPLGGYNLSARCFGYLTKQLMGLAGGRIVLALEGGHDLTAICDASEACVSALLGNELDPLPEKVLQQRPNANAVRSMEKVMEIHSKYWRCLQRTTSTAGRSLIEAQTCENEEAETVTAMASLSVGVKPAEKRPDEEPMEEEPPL

[11] = In vivo PK study in CD-1 male mice; settings: mouse, plasma, CD-1 mice, IP, 20 mg/kg
[12] = read-out: Stability in mouse hepatocytes t1/2

O=C(NO)c1ccc(CN(C2CC2)S(=O)(=O)c2cc(F)c(F)c(F)c2F)cc1 [Compound 14, 4-(((N-Cyclopropyl-2,3,4,5-tetrafluorophenyl)sulfonamido)methyl)-N-hydroxybenzamide]
IC50 [1]: 16.2 µM
IC50 [2]: 9.6 µM
IC50 [3]: > 1 µM
IC50 [4]: > 1 µM
IC50 [5]: > 1 µM
IC50 [6]: > 1 µM
IC50 [7]: > 1 µM
IC50 [8]: 0.334 µM
hepatocyte CLint at 2 h, 1 μM [9]: 37.6 ± 0.6 µL/min/1e6 cells
half-life at 1 μM [9, 12]: 37 min
half-life at 2 h, 1 μM [9, 12]: 36.9 ± 0.59 min
IC50 [10]: > 1 µM
Cmax at 24 h [11]: 493 ng/mL
MRT at 24 h [11]: 126 ± 30 min
AUC(0-t) at 24 h ([11]; read-out: In vivo AUClast (overall exposure)): 1580 ng·h/mL
half-life ([11]; read-out: In vivo t1/2): 63 min
